Experimental data from PMC9692523, “Exposure to (Poly)phenol Metabolites after a Fruit and Vegetable Supplement Intake: A Double-Blind, Cross-Over, Randomized Trial” (Nutrients, 2022).

Tests used:
[1] = Plasma pharmacokinetics of phenolic metabolites after one 450 mg capsule of the supplement (UHPLC-ESI-MS/MS); assay type: in vivo, human; settings: for Cmax / Tmax / Tpres (time of presence of metabolites in circulation): n = 10, mean ± SEM; for Tpres (time of presence of metabolites in circulation): interval between first and last appearance; for AUC0-24: supplemented volunteers (n = 10), 450 mg capsule, mean ± SEM
Procedure: (§1) This study was designed as a 3-week randomized, double-blind, cross-over clinical trial. Eligible participants were randomized using simple block randomization of 1:1. Once enrolled, subjects received either one 450 mg capsule of the test supplement or one 450 mg capsule of placebo on the first day of the study (Phase I: D1). After three days of sampling, volunteers started a wash-out period of 1 week and were then enrolled for the second test Phase with ingestion of the opposite supplement (Phase II: D1) (Figure 1). The placebo product was 100% maltodextrin, which was (poly)phenol-free.
On the day of the test (D1), volunteers visited the Research Center after an overnight fast. Blood was collected at T0 to determine baseline levels of plasma phenolic metabolites. Then, volunteers were invited to take the 450 mg capsule of the supplement or the placebo with 250 mL of still water (Figure 2). Additional blood samples were then collected at 1 h (D1, T1), 2 h (D1, T2), 3 h (D1, T3), 4 h (D1, T4), 5 h (D1, T5), 6 h (D1, T6), 8 h (D1, T8), 10 h (D1, T10) and 24 h (D2, T24) after capsule intake. Blood was taken from the basilica vein and centrifuged at 3000 rpm for 10 min at 4 °C. Plasma was immediately extracted and frozen at −80 °C for further analysis.
Plasma samples were then extracted using a solid phase extraction (SPE) method, as previously reported by Castello and colleagues. Briefly, 350 µL of plasma samples was diluted (1:1) with phosphoric acid 4% (v/v). After plate activation, 600 µL of the diluted plasma samples was loaded on a 96 well µ-SPE HLB (Oasis® HLB µElution Plate 30 µm, Waters, Milford, Massachusetts, MA, USA). Samples were washed with 200 µL of water and 200 µL of 0.2% (v/v) acetic acid. Finally, samples were eluted with 60 µL of methanol for UHPLC-ESI-MS/MS analysis.
(§2) Plasma and urine samples were analyzed by a UHPLC DIONEX Ultimate 3000 equipped with a triple quadrupole TSQ Vantage (Thermo Fisher Scientific Inc) fitted with a heated ESI (H-ESI) (Thermo Fisher Scientific Inc) probe, as previously reported. Separations were carried out by means of a Kinetex EVO C18 (100 × 2.1 mm) column, 2.6 µm particle size (Phenomenex, Torrance, CA, USA), installed with a pre-column (Phenomenex). Mobile phase A was 0.2% formic acid in water, and mobile phase B was acetonitrile containing 0.2% formic acid. The gradient started with 5% B, and isocratic conditions were maintained for 0.5 min, reaching 95% B after 6.5 min, followed by 1 min at 95%. The starting gradient was then immediately re-established and maintained for 5 min to re-equilibrate the column. The flow rate was 0.4 mL/min, the injection volume was 5 µL and the column temperature was set at 40 °C.
(§3) The applied MS method consisted of the selective determination of each target precursor ion by the acquisition of characteristic product ion in selective reaction monitoring (SRM) mode (Supplemental Table S2). For all the analyses, the spray voltage was set at 3 kV, the vaporizer temperature at 300 °C and the capillary temperature operated at 270 °C. The sheath gas flow was 50 units, and auxiliary gas pressure was set to 10 units. Ultra-high purity argon gas was used for collision-induced dissociation (CID). The S-lens values were defined for each compound based on infusion parameter optimization. Conversely, for those compounds not available for infusion, the S-lens values were set using the values obtained for the chemically closest available standards. Quantification was performed with calibration curves of standards when available or using the most structurally similar compound. Data processing was performed using Xcalibur software (Thermo Scientific Inc., San Jose, CA, USA).
All data were expressed as mean values ± standard deviation (SD) and mean values ± standard error to the mean (SEM) for metabolites in blood and urine samples. […]

[2] = Urinary excretion of phenolic metabolites over 48 h after one 450 mg capsule of the supplement (UHPLC-ESI-MS/MS); assay type: in vivo, human; settings: urine, n = 10, mean ± SEM; for Urinary excretion 0 (h): baseline (day before)
Procedure: as §1
Urine samples were collected the day before (baseline) and during the 48 h period following the supplementation (T0-T3, T3-T6, T6-T10, T10-T14, T14-T24, T24-T32 and T32-T48) (Figure 2). Urine volumes at each collection period were registered, and samples were aliquoted and stored at −80 °C until further processing.
Then, urine samples were prepared as previously reported by Brindani and colleagues. Briefly, urine samples were defrosted, vortexed, diluted in 0.1% formic acid in water (1:4, v/v) and centrifuged at 12,000 rpm for 5 min. Finally, urine samples were filtered (0.45 µm nylon filter) prior to UHPLC-ESI-MS/MS analysis.
as §2, §3
All data were expressed as mean values ± standard deviation (SD) and mean values ± standard error to the mean (SEM) for metabolites in blood and urine samples. PKSolver add-on program in Microsoft Excel was used to determine pharmacokinetic parameters of blood phenolic metabolites, including time to reach the maximum plasma concentration (Tmax, h), maximum plasma concentration (Cmax, nmol/L), area under the curve (AUC0-24, nmol/L·h), and time of presence of metabolites in circulation (Tpres, h). Tpres was calculated by taking the time interval between the first appearance and the last appearance of the considered metabolite. Coefficient of variation (CV) was evaluated for each metabolite and multivariate principal component analysis (PCA) was applied to explore the inter-individual variation in the urinary metabolites among the participants. […]

## O=C1CCC(Cc2ccc(OS(=O)(=O)O)c(O)c2)O1 (centres unmarked) [compound 21]
[1]
  Cmax: 40 ± 16.9 nM
  Tmax: 7.00 ± 0.75 h
  Tpres (time of presence of metabolites in circulation): 12.15 ± 1.84 h
  AUC0-24: 0.1417 ± 0.05037 µM·h
[2]
  Urinary excretion 0 (h): 344.60 ± 186.50 µg
  Urinary excretion 0–3 (h): 166.29 ± 126.77 µg
  Urinary excretion 3–6 (h): 2548.76 ± 1207.06 µg
  Urinary excretion 6–10 (h): 2277.16 ± 795.52 µg
  Urinary excretion 10–14 (h): 919.49 ± 314.48 µg
  Urinary excretion 14–24 (h): 3618.13 ± 985.44 µg
  Urinary excretion 24–32 (h): 1346.37 ± 481.02 µg
  Urinary excretion 32–48 (h): 389.78 ± 215.48 µg
  Urinary excretion Total (0–48 h): 11,610.60 ± 1923.81 µg

## O=C(O)[C@H]1O[C@@H](Oc2ccc3c(c2)oc(=O)c2ccccc23)[C@H](O)[C@@H](O)[C@@H]1O [compound 44]
[2]
  Urinary excretion 6–10 (h): 5.31 ± 5.04 µg
  Urinary excretion 10–14 (h): 39.56 ± 37.53 µg
  Urinary excretion 14–24 (h): 144.45 ± 90.90 µg
  Urinary excretion 24–32 (h): 74.85 ± 48.79 µg
  Urinary excretion 32–48 (h): 30.99 ± 29.40 µg
  Urinary excretion Total (0–48 h): 295.17 ± 185.26 µg

## COc1cc(C(=O)O)cc(OC)c1O.COc1cc(C(=O)O)cc(OC)c1O [compound 39]
[2]
  Urinary excretion 0 (h): 0.71 ± 0.46 µg
  Urinary excretion 0–3 (h): 8.71 ± 8.71 µg
  Urinary excretion 3–6 (h): 3.89 ± 3.81 µg
  Urinary excretion 6–10 (h): 3.57 ± 2.82 µg
  Urinary excretion 10–14 (h): 1.42 ± 1.38 µg
  Urinary excretion 14–24 (h): 3.63 ± 2.95 µg
  Urinary excretion 24–32 (h): 3.33 ± 2.94 µg
  Urinary excretion 32–48 (h): 8.73 ± 8.35 µg
  Urinary excretion Total (0–48 h): 33.92 ± 30.72 µg

## COc1cc(CCC(=O)O)ccc1OS(=O)(=O)O [compound 46]
[1]
  Cmax: 169 ± 156 nM
  Tmax: 6.43 ± 2.97 h
  Tpres (time of presence of metabolites in circulation): 7.14 ± 3.61 h
  AUC0-24: 0.55828 ± 0.53121 µM·h

## O=C(O)c1ccc(O)c(OS(=O)(=O)O)c1 [compound 45]
[1]; after supplement intake
  Time of first plasma concentration (absorption) peak: 1.38 ± 0.18 h
[1]
  Cmax: 43.6 ± 7.34 nM
  Tmax: 2.10 ± 0.46 h
  Tpres (time of presence of metabolites in circulation): 13.45 ± 2.80 h
  AUC0-24: 0.19606 ± 0.03272 µM·h

## O=C(O)CCc1ccc(O)c(OS(=O)(=O)O)c1 [compound 41]
[1]
  Cmax: 18.2 ± 11.3 nM
  Tmax: 4.56 ± 1.13 h
  Tpres (time of presence of metabolites in circulation): 9.06 ± 2.56 h
  AUC0-24: 0.02741 ± 0.01121 µM·h
[2]
  Urinary excretion 0 (h): 27.49 ± 27.49 µg
  Urinary excretion 0–3 (h): 101.08 ± 52.47 µg
  Urinary excretion 3–6 (h): 103.59 ± 54.34 µg
  Urinary excretion 6–10 (h): 41.08 ± 16.51 µg
  Urinary excretion 10–14 (h): 56.67 ± 24.78 µg
  Urinary excretion 14–24 (h): 389.70 ± 95.00 µg
  Urinary excretion 24–32 (h): 208.69 ± 73.47 µg
  Urinary excretion 32–48 (h): 289.45 ± 118.16 µg
  Urinary excretion Total (0–48 h): 1217.76 ± 256.95 µg
